The NIST ThermoML archive (doi:10.1021/je800242n)
Where “and” joins values, the source holds several entries; their conditions need not be identical. Equal entries are not always repeated.

Details: Crystal

[F][Zn][F] [zinc fluoride]
Details	vapor or sublimation pressure
846 K	1.2e-05 kPa
852 K	1.2e-05 kPa
853 K	1.23e-05 kPa
854 K	1.78e-05 kPa
859 K	1.23e-05 kPa
865 K	2.4e-05 kPa
867 K	1.82e-05 kPa and 2.4e-05 kPa
871 K	2.45e-05 kPa
875 K	2.45e-05 kPa
876 K	3.55e-05 kPa and 4.79e-05 kPa
880 K	3.63e-05 kPa and 3.55e-05 kPa
883 K	4.57e-05 kPa and 3.63e-05 kPa
885 K	4.57e-05 kPa
886 K	3.63e-05 kPa
887 K	4.57e-05 kPa and 6.03e-05 kPa and 4.9e-05 kPa
888 K	4.57e-05 kPa
889 K	7.24e-05 kPa
891 K	6.03e-05 kPa
893 K	6.17e-05 kPa
895 K	6.76e-05 kPa and 4.9e-05 kPa
896 K	6.76e-05 kPa and 6.17e-05 kPa
898 K	6.76e-05 kPa and 8.32e-05 kPa and 7.41e-05 kPa
900 K	6.76e-05 kPa
902 K	8.51e-05 kPa and 8.32e-05 kPa
903 K	9.12e-05 kPa and 0.000107 kPa
904 K	7.41e-05 kPa
905 K	7.41e-05 kPa
906 K	9.12e-05 kPa and 0.000107 kPa
909 K	0.000102 kPa and 9.77e-05 kPa
910 K	0.00012 kPa
911 K	0.000115 kPa
912 K	9.77e-05 kPa
913 K	0.000138 kPa and 0.000123 kPa
914 K	0.000155 kPa and 0.00011 kPa
916 K	0.000158 kPa and 0.000166 kPa
919 K	0.000158 kPa and 0.000135 kPa
920 K	0.000166 kPa
921 K	0.000182 kPa
922 K	0.000135 kPa
923 K	0.000204 kPa and 0.000148 kPa
924 K	0.000204 kPa
925 K	0.000182 kPa
926 K	0.000229 kPa
928 K	0.000204 kPa and 0.000251 kPa
930 K	0.000251 kPa and 0.000195 kPa
932 K	0.000263 kPa
933 K	0.000195 kPa and 0.000275 kPa
934 K	0.000295 kPa and 0.000257 kPa and 0.000209 kPa
937 K	0.000316 kPa
938 K	0.000372 kPa
939 K	0.000316 kPa
940 K	0.000339 kPa
941 K	0.000372 kPa and 0.000282 kPa
942 K	0.000282 kPa and 0.000355 kPa
943 K	0.000282 kPa
945 K	0.000407 kPa
946 K	0.00038 kPa
948 K	0.000437 kPa
950 K	0.000479 kPa and 0.000513 kPa
951 K	0.000479 kPa and 0.000389 kPa
952 K	0.000363 kPa and 0.000501 kPa
955 K	0.000575 kPa
956 K	0.000513 kPa and 0.000417 kPa
958 K	0.000575 kPa
959 K	0.000589 kPa
960 K	0.000661 kPa
961 K	0.000661 kPa and 0.000525 kPa
962 K	0.000692 kPa
963 K	0.000525 kPa and 0.000692 kPa
965 K	0.000589 kPa
966 K	0.000794 kPa and 0.000692 kPa
968 K	0.000759 kPa
969 K	0.000851 kPa and 0.000912 kPa
970 K	0.000871 kPa and 0.000708 kPa
972 K	0.000912 kPa
973 K	0.000955 kPa
974 K	0.000741 kPa
975 K	0.000912 kPa and 0.000813 kPa
976 K	0.00107 kPa
978 K	0.00105 kPa and 0.00123 kPa
979 K	0.00115 kPa and 0.000933 kPa
980 K	0.00115 kPa
982 K	0.0012 kPa
983 K	0.000977 kPa and 0.00132 kPa
984 K	0.00105 kPa
986 K	0.00145 kPa and 0.00126 kPa
988 K	0.00148 kPa and 0.00158 kPa
989 K	0.00148 kPa and 0.00138 kPa and 0.00126 kPa
991 K	0.00158 kPa
993 K	0.00132 kPa and 0.00135 kPa
994 K	0.00178 kPa
996 K	0.00191 kPa and 0.00195 kPa
997 K	0.00166 kPa
998 K	0.00182 kPa and 0.00214 kPa
999 K	0.00195 kPa and 0.00166 kPa
1001 K	0.00209 kPa
1003 K	0.00178 kPa
1004 K	0.00174 kPa and 0.00245 kPa
1005 K	0.00251 kPa
1006 K	0.00245 kPa
1007 K	0.00234 kPa
1008 K	0.00219 kPa
1009 K	0.00219 kPa and 0.00295 kPa
1010 K	0.00257 kPa
1011 K	0.00269 kPa
1013 K	0.00229 kPa and 0.00316 kPa and 0.00234 kPa
1016 K	0.00347 kPa
1017 K	0.00324 kPa and 0.00295 kPa
1019 K	0.00295 kPa
1020 K	0.00295 kPa
1021 K	0.00347 kPa and 0.00339 kPa
1022 K	0.00398 kPa and 0.00302 kPa
1023 K	0.00309 kPa
1027 K	0.00407 kPa and 0.0038 kPa
1031 K	0.00447 kPa and 0.00457 kPa and 0.00537 kPa
1035 K	0.00427 kPa
1036 K	0.00525 kPa
1037 K	0.0049 kPa
1039 K	0.00562 kPa
1040 K	0.00692 kPa
1041 K	0.00562 kPa
1046 K	0.00676 kPa and 0.00575 kPa
1047 K	0.00631 kPa

[F][Cd][F] [cadmium difluoride]
Details	vapor or sublimation pressure
962 K	1.26e-05 kPa
968 K	1.35e-05 kPa
973 K	1.58e-05 kPa
977 K	2e-05 kPa
978 K	2.51e-05 kPa
983 K	2.51e-05 kPa
984 K	2.69e-05 kPa
988 K	3.39e-05 kPa
992 K	3.39e-05 kPa
993 K	3.47e-05 kPa
1000 K	5.01e-05 kPa
1001 K	4.68e-05 kPa
1002 K	4.57e-05 kPa
1003 K	5.75e-05 kPa
1004 K	5.01e-05 kPa
1009 K	6.76e-05 kPa
1012 K	7.94e-05 kPa
1013 K	6.92e-05 kPa and 6.76e-05 kPa and 7.59e-05 kPa
1014 K	5.75e-05 kPa
1016 K	6.76e-05 kPa
1017 K	5.75e-05 kPa and 9.12e-05 kPa
1018 K	8.51e-05 kPa
1021 K	0.000102 kPa
1022 K	8.71e-05 kPa and 0.000115 kPa
1025 K	6.76e-05 kPa and 0.000107 kPa
1026 K	7.94e-05 kPa
1027 K	9.12e-05 kPa
1028 K	0.000117 kPa
1030 K	0.000126 kPa
1031 K	0.000135 kPa
1032 K	9.12e-05 kPa and 0.000102 kPa and 0.00012 kPa
1033 K	9.12e-05 kPa and 0.000158 kPa
1036 K	0.000102 kPa
1038 K	0.000115 kPa and 0.000162 kPa
1040 K	0.000135 kPa and 0.000186 kPa
1042 K	0.000162 kPa and 0.000182 kPa
1043 K	0.000186 kPa [middle of 4 runs]
1046 K	0.000138 kPa and 0.000158 kPa
1048 K	0.000158 kPa
1049 K	0.000229 kPa
1050 K	0.000182 kPa
1051 K	0.000214 kPa
1052 K	0.000251 kPa and 0.000295 kPa
1053 K	0.000251 kPa
1054 K	0.000204 kPa and 0.000263 kPa
1055 K	0.000182 kPa and 0.000204 kPa
1057 K	0.000204 kPa
1059 K	0.000229 kPa
1060 K	0.000275 kPa
1061 K	0.000309 kPa
1062 K	0.000389 kPa
1064 K	0.000275 kPa and 0.000339 kPa
1066 K	0.000275 kPa
1068 K	0.000295 kPa and 0.000316 kPa and 0.000275 kPa
1069 K	0.000407 kPa and 0.000389 kPa
1070 K	0.000355 kPa
1071 K	0.000339 kPa
1073 K	0.000398 kPa
1074 K	0.000525 kPa
1075 K	0.000389 kPa and 0.000479 kPa
1077 K	0.000363 kPa
1078 K	0.000407 kPa
1079 K	0.000457 kPa [middle of 4 runs]
1080 K	0.000501 kPa
1082 K	0.000457 kPa
1084 K	0.000537 kPa and 0.000676 kPa
1086 K	0.000676 kPa
1087 K	0.000501 kPa
1088 K	0.00055 kPa
1089 K	0.000457 kPa and 0.000589 kPa
1090 K	0.00055 kPa
1091 K	0.000708 kPa
1093 K	0.000617 kPa
1095 K	0.000933 kPa
1096 K	0.000631 kPa
1097 K	0.000631 kPa and 0.000724 kPa and 0.000912 kPa
1098 K	0.000724 kPa and 0.000575 kPa and 0.000741 kPa
1101 K	0.000912 kPa
1102 K	0.000724 kPa
1103 K	0.000933 kPa
1104 K	0.000813 kPa
1105 K	0.000871 kPa and 0.0012 kPa
1107 K	0.000912 kPa and 0.000813 kPa and 0.000676 kPa
1108 K	0.0012 kPa
1110 K	0.00117 kPa
1111 K	0.00117 kPa
1114 K	0.001 kPa and 0.0011 kPa and 0.00105 kPa
1115 K	0.00135 kPa
1116 K	0.00151 kPa
1117 K	0.00117 kPa and 0.00102 kPa and 0.00115 kPa
1118 K	0.0011 kPa and 0.001 kPa and 0.00158 kPa
1120 K	0.0017 kPa
1121 K	0.00162 kPa
1123 K	0.00145 kPa
1124 K	0.00115 kPa
1125 K	0.00132 kPa and 0.00138 kPa
1126 K	0.00129 kPa
1127 K	0.00145 kPa and 0.00129 kPa and 0.00191 kPa
1129 K	0.00141 kPa and 0.002 kPa and 0.00195 kPa
1134 K	0.00174 kPa
1135 K	0.00195 kPa
1136 K	0.00178 kPa and 0.00166 kPa
1137 K	0.00245 kPa
1138 K	0.00245 kPa
1139 K	0.00182 kPa
1145 K	0.00224 kPa
1147 K	0.00229 kPa
1149 K	0.00229 kPa
